From US8722580B2, “Agent for inhibiting cytokinin signaling” (Sumitomo Chemical Company, Limited, priority 2006, dated 2014)

Tests used:
[1] = system: rice; assay: Rice stand establishment-promoting activity by seed treatment, direct seeding on flooded field (Example 20); assay type: in vivo, Oryza sativa japonica Nipponbare; conditions: for Stand establishment rate (%) on day 23 after sowing: Blank slurry 76.7
Protocol: Seeds of rice (Oryza sativa japonica Nipponbare) were treated with the chemical substance Ic3-1 (which inhibits intracellular signaling from a plant-derived cytokinin receptor of a cell) selected in Example 7, and were grown under direct seeding conditions. Then, a stand establishment rate was examined, and thus a rice stand establishment-promoting activity of the chemical substance was evaluated.
First, a Blank slurry solution containing 5% (v/v) Color Coat Red (manufactured by BECKER UNDERWOOD), 5% (v/v) CF-Clear (manufactured by BECKER UNDERWOOD) and 0.42% (v/v) Maxim-XL (manufactured by Syngenta) was prepared. In 1.3 ml of the Blank slurry solution, 6.25 mg, 12.5 mg, 25 mg or 50 mg of the chemical substance Ic3-3 was dissolved. Seeds were treated with the solution in an amount of 1.3 ml per 50 g of seeds (each corresponding to 0.125 mg, 0.25 mg, 0.5 mg and 1 mg/g seed) using a Hege11 seed treating device (manufactured by Hans-Ulrich Hege).
Then, a concrete pot (50 cm×50 cm) placed outdoors was flooded at a flooding depth of 5 cm, and 50 seeds per pot were sown. On day 23 after sowing, the number of seedlings whose leaf apex appeared on the water surface was examined. […] [Stand establishment rate (%)]=[Number of seedlings whose leaf apex appears on the water surface]/[Number of sown seeds]×100

[2] = system: rice; assay: Rice tillering-promoting activity by seed treatment, direct seeding on dry field (Example 21); assay type: in vivo, Oryza sativa japonica Nipponbare; conditions: seed treatment 0.25 mg/g seed; day 30 after sowing
Protocol: Seeds of rice (Oryza sativa japonica Nipponbare) were treated with the chemical substance Ic3-1 (which inhibits intracellular signaling from a plant-derived cytokinin receptor of a cell) selected in Example 7, and were grown under direct seeding on dry field-conditions. Then, the number of tillers was examined, and thus a tillering-promoting activity of the chemical substance was evaluated.
First, a Blank slurry solution containing 5% (v/v) Color Coat Red (manufactured by BECKER UNDERWOOD), 5% (v/v) CF-Clear (manufactured by BECKER UNDERWOOD) and 0.42% (v/v) Maxim-XL (manufactured by Syngenta) was prepared. In 1.3 ml of the Blank slurry solution, 12.5 mg of the chemical substance Ic3-3 was dissolved. Seeds were treated with the solution in an amount of 1.3 ml per 50 g of seeds (corresponding to 0.25 mg/g seed) using a Hege11 seed treating device (manufactured by Hans-Ulrich Hege).
The, 20 seeds per pot of the treated seeds were sown in a 1/5000a Wagner pot at a depth of 1 cm and then cultured in a greenhouse. On day 10 after sowing, water was charged at a flooding depth of 5 cm and culture was continued. On day 30 after sowing, the number of tillers was examined.

[3] = system: rice; assay: Root growth-promoting activity using rice, soil drenching (Example 14); assay type: in vivo, Oriza sativa japonica Nipponbare; conditions: soil drenched with 10 ppm solution, 500 μl per well
Protocol: With respect to the chemical substance Ic3-3, a root growth promoting activity was measured using rice (Oriza sativa japonica Nipponbare).
First, an acetone solution containing a predetermined concentration of the chemical substance was prepared and then 100-fold diluted with distilled water to 10 ppm (containing 1% acetone) to obtain a chemical substance solution. Seeds were immersed in water for 2 days to stimulate germination. The seeds were sowed in a 288-well plug tray (3 seeds per well), and then soil was drenched with the above chemical substance solution in an amount of 500 μl per well. After covering with soil, the plug tray was put in a plastic bag and then placed in an air-conditioned room (dark place at 30° C.) for 3 days. After removing the plastic bag from the plug tray, the plug tray was placed under light conditions of light/dark=16 h/8 h for 4 days while the bottom was irrigated at all times. Thus, rice seeds were cultivated to obtain grown rice. The resulting rice roots were washed and the total root length was analyzed using a root length measurement image analyzer WinRHIZO (manufactured by Regent Instruments).

[4] = biological target: T1, cytokinin receptor CRE1 (Arabidopsis thaliana, UniProt Q9C5U0, S567G/T1018A); assay: Inhibition of intracellular signaling from plant-derived cytokinin receptor, growth of transformed yeast cell TM182-CRE1; assay type: cell-based; conditions: trans-zeatin 0.6 ppm, chemical substance 2 ppm
T1 construct: expressed in transfected cells; host or cells: Saccharomyces cerevisiae TM182 (sln1Δ) transformed with p415CYC-CRE1
T1 sequence (Q9C5U0 24-1080 S567G/T1018A): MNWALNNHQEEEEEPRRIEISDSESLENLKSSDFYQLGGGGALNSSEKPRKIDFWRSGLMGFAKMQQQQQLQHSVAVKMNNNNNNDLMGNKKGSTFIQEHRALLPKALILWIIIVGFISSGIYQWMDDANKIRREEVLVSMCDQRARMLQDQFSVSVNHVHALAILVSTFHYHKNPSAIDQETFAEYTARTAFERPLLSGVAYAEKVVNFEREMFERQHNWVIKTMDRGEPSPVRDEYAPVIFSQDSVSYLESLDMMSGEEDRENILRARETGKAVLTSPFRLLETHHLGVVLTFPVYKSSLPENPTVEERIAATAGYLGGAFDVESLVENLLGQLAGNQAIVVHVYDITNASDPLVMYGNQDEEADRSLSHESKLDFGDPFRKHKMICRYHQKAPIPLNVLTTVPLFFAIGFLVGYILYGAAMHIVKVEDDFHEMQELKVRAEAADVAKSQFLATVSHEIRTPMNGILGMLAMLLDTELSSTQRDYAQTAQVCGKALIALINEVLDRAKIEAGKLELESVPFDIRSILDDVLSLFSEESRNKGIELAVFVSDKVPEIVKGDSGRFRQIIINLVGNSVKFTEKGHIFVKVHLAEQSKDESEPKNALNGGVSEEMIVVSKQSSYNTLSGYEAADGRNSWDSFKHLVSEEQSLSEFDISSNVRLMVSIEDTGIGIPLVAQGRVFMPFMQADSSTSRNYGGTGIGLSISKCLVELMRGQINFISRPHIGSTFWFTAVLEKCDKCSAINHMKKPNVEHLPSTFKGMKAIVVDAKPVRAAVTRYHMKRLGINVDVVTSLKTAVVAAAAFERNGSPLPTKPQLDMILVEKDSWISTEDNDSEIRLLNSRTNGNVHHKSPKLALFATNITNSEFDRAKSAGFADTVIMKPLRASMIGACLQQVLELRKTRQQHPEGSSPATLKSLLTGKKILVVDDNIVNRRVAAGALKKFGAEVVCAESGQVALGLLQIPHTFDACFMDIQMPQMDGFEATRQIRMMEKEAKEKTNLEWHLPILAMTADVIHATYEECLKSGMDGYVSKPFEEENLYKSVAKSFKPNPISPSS
In short: (§1)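 Yeast TM182-CRE1 (DOLU+Glu) or control TM182-p415CYC1 (DOLU+Gal), after 18 h preculture at 30° C and dilution to OD600=0.1, exposed to compound at 2 ppm plus trans-zeatin 0.6 ppm for 24 h at 30° C. OD600 vs DMSO control, blank-corrected; inhibition = 100 − relative growth %.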

[5] = system: transformed cell TM182-p415CYC1; assay: Control growth test with transformed yeast cell TM182-p415CYC1 (toxicity to yeast); assay type: cell-based; conditions: trans-zeatin 0.6 ppm; chemical substance 2 ppm; 30° C., 24 hours; turbidity OD 600
In short: as §1

[6] = system: Arabidopsis thaliana; assay: Root growth-promoting activity test (Example 9); assay type: in vivo; conditions: test final concentration 5 ppm (concentration with highest root growth rate); main root length vs control section, 22° C., 10 days
In short: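 Arabidopsis seeds (10–20 per tube) were grown in Enshi standard medium containing the compound from DMSO at 0.001–10 ppm final, at 22° C in light for 10 days. Main root length was averaged over eight repeats and expressed as % of the control.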

OCCCNc1nc(-c2ccccc2)c2cc(Cl)ccc2n1 [Ic3-3]
Stand establishment rate (%) on day 23 after sowing ([1]; seed treatment 0.125 mg/g seed): 87.3% | Stand establishment rate (%) on day 23 after sowing ([1]; seed treatment 0.25 mg/g seed): 82.7% | Stand establishment rate (%) on day 23 after sowing ([1]; seed treatment 0.5 mg/g seed): 79.3% | Stand establishment rate (%) on day 23 after sowing ([1]; seed treatment 1 mg/g seed): 84.0% | stand establishment rate compared with the Blank slurry-treated section ([1]; seed treatment concentration 0.125 to 1 mg/g seed, day 23 after sowing): a stand establishment rate was increased | number of tillers per stock compared with the Blank slurry-treated section [2]: the number of tillers per stock was increased | root growth compared with the control section (UTC) [3]: root growth was remarkably promoted | total root length (image analyzer WinRHIZO) [3]: an increase of the total root length | Relative growth rate (%) in test section of test substance to control section, Transformed cell TM182-CRE1 ([4]; 30° C., 24 hours, turbidity OD 600): 1.4% | Activity (%) of test substance for inhibiting intracellular signaling from plant-derived cytokinin receptor of cell ([4]; = 100 − relative growth rate of TM182-CRE1): 98.6% | Relative growth rate (%) in test section of test substance to control section, Transformed cell TM182-p415CYC1 [5]: 108.6% | Root growth-promoting activity (root growth rate) [6]: 163.4%
